Measurements as given in patent US5554620A, “Substituted 6,11-ethano-6,11-dihydrobenzo[b] quinolizinium salts and compositions and methods of use thereof” (Sterling Winthrop Inc., priority 1994, dated 1996).

These compounds were tested against PCP receptor (assay: [3H]TCP radioreceptor assay (binding to PCP recognition sites)). Settings: [3H]TCP approx. 1 nM, rat brain membranes; mean of at least two determinations.
Parameters: species or system rat (male Sprague-Dawley, whole brain)
Experimental: [^3 H]TCP Radioreceptor Assay
[^3 H]TCP binding to PCP recognition sites was performed as described by Vignon et al. Brain Research 1983, 280, 194-197. Male Sprague-Dawley rats were sacrificed by decapitation, and whole brains were homogenized in 10 volumes (wt/vol) of cold Tris-HCl buffer (50 mM, pH 7.7) using a Brinkmann Polytron (setting 6, 30 sec). The homogenate was centrifuged at 40,000×g for 10 min at 4° C. The supernatant was decanted, and the homogenization and centrifugation steps were repeated twice as described above. Following this, the pellet was resuspended in Tris-HCl (5 mM, pH 7.7) at a tissue concentration of 0.5-0.75 g/mL, and one mL aliquots were frozen at -70° C. until use. The binding characteristics for PCP recognition sites were not altered by the freezing of membrane suspensions.
On the day of the assay, membrane aliquots were thawed, resuspended in fresh 5 mM Tris-HCl buffer at a tissue concentration of 1 mg/mL, and stored on ice until use. Each assay tube contained 100 μl of [^3 H]TCP at a final concentration of approximately 1 nM, 100 μL of various concentrations of the compounds of interest, 500 μL of the tissue suspension and 300 μL of buffer to a final assay volume of 1 mL and a final protein concentration of 0.5 mg/tube. Non-specific binding was defined by addition of a final concentration of 100 μM PCP to blank tubes. All tubes were incubated at room temperature for 25 min before termination of the reaction by rapid filtration over Whatman GF/B glass fiber filters that had been presoaked in a solution of 0.5% polyethylenimine for at least 1 hr prior to use. Filters were washed with three 4 mL volumes of cold Tris buffer. Following addition of scintillation cocktail, the amount of bound radioactivity was determined by liquid scintillation spectrometry using a Beckman LS 5000TA liquid scintillation counter with an efficiency for tritium of approximately 55%. Inhibition constants (Ki values) were calculated using the EBDA/LIGAND program (McPherson, J. Pharmacol. Meth. 1985, 14, 213-228), purchased from ElsevierBiosoft, Inc. Results are reported as the Ki values (in nM) which are expressed as the mean of at least two separate determinations; or as a percent (%) inhibition of binding at 10 μM.
For `O=[N+]([O-])c1cccc2c1C1CC(c3ccoc3)(c3ccoc3)C2c2cccc[n+]21.[O-][Cl+3]([O-])([O-])[O-]` (single isomer, unassigned) [Example 201(c), 6,11-ethano-12,12-di(3-furyl)-7-nitro-6,11-dihydrobenzo[b]quinolizinium perchlorate], the Ki was 3.43 µM. `COc1cccc2c1CC1C3c4ccccc4C(c4cccc[n+]43)C21c1ccccc1` (stereo not drawn) [4(E), 6,11[[2',3']-3'-phenyl-7'-methoxy-indanyl]16,11-dihydrobenzo[b]quinolizinium hexafluoro-phosphate] gave a Ki of 5.87 µM. `CC(C)(C)C(=O)Oc1cccc2c1C1c3cccc[n+]3C2CC1(c1ccoc1)c1ccoc1` (stereo not drawn) [Example 174, 6,11-ethano-12,12-di(3-furyl)-10-trimethylacetyloxy-6,11dihydrobenzo-[b]quinolizinium chloride] gave a Ki of 0.0237 µM. Work on `Cc1cc[n+]2c(c1)C1c3ccccc3C2CC1(c1ccccc1)c1ccccc1.[O-][Cl+3]([O-])([O-])[O-]` (stereo not drawn) [54(E), 6,11-ethano-12,12-diphenyl-2-methyl-6,11-dihydrobenzo[b]quinolizinium perchlorate] yielded a Ki of 0.052 µM. In the case of `c1ccc2c(c1)C1CC(c3cnn[nH]3)(c3cnn[nH]3)C2c2cccc[n+]21` (stereo not drawn) [70(F), 6,11-ethano-12.12-di-(5-1,2,3-triazoyl)6,11-dihydrobenzo[b]quinolizinium Chloride], the Ki is reported as 3.83 µM. `c1ccc2c(c1)C1CC(c3nccs3)(c3nccs3)C2c2cccc[n+]21` (stereo not drawn) [61(c), 6,11-ethao-12,12-di(2-thiazolyl)-6,11-dihydrobenzo[b]quinolizinium perchlorate] was tested, and the Ki was 0.017 µM. `Brc1ccc(Br)c2c1C1CC(c3ccoc3)(c3ccoc3)C2c2cccc[n+]21.[O-][Cl+3]([O-])([O-])[O-]` (stereo not drawn) [60(e), 6,11-ethano-12,12-di(3-furyl)-7,10-dibromo-6,11-dihydrobenzo[b]quinolizinium perchlorate] showed a Ki of 0.345 µM. For `COc1ccc2c(c1)C1c3cccc[n+]3C2CC1(c1ccccc1)c1ccccc1` (stereo not drawn) [27(E), 6,11-ethano-12,12-diphenyl-9-methoxy-6,111-dihydrobenzo[b]quinolizinium chloride 1/2 hydrate], the Ki was 0.0104 µM. Work on `c1cc[n+]2c(c1)C1c3c(ccc4c3OCO4)C2CC1(c1ccoc1)c1ccoc1` (stereo not drawn) [183(c), 6,11-ethano-12,12-di(3-furyl)-9,10-methylenedioxy-6,11-dihydrobenzo[b]quinolizinium chloride] yielded a Ki of 0.00272 µM. In the case of `CCOC12c3ccoc3CCC1C1c3ccccc3C2c2cccc[n+]21` (stereo not drawn) [9(b), 6,11[[5',4!]-4'-ethoxy-4',5',6',7'-tetrahydrobenzofuryl]-6,11-dihydrobenzo[b]quinolizinium hexafluorophosphate], the Ki is reported as 0.0059 µM. In the case of `CCOC1(c2cc(C)oc2C)CC2c3ccccc3C1c1cccc[n+]12` (stereo not drawn) [12(b), 6,11-ethano-12-(2,5-dimethyl)-3-furyl]-12-ethoxy-6,11-dihydrobenzo[b]quinolizinium hexafluorophosphate], the Ki is reported as 0.253 µM. For `OCc1cccc2c1C1c3cccc[n+]3C2CC1(c1ccoc1)c1ccoc1.[O-][Cl+3]([O-])([O-])[O-]` (stereo not drawn) [182(e), 6,11-ethano-12,12-di(3-furyl)-10-hydroxymethyl-6,11-dihydrobenzo[b]quinolizinium perchlorate], the Ki was 0.159 µM. `c1ccc2c(c1)C1CC(c3cn[nH]c3)(c3cn[nH]c3)C2c2cccc[n+]21` (stereo not drawn) [161(d), 6,11-ethano-12,12-di(pyrazol-4-yl)]-6,11-dihydrobenzo[b]quinolizinium perchlorate] gave a Ki of 3.68 µM. For `c1ccc2c(c1)C1C3CCc4occc4C3(c3ccoc3)C2c2cccc[n+]21` (stereo not drawn) [7(c), 6,11-[5',4"]-4'-(3-furyl)-4',5',6',7'-tetrahydrobenzofuryl]-6,11-dihydrobenzo[b]quinolizinium chloride], the Ki was 0.0011 µM. For `c1ccc2c(c1)C1C3CCc4occc4C3(c3cc4ccccc4o3)C2c2cccc[n+]21` (stereo not drawn) [10(c-k), 6,11[[5',4']-4'-(2-benzofuryl)-4',5',6',7'-tetrahydro-benzofuryl]6,11-dihydrobenzo[b]quinolizinium hexafluorophosphate], the Ki was 0.696 µM. For `COc1cccc2c1C1c3cccc[n+]3C2CC1(c1cc[nH]n1)c1cc[nH]n1` (stereo not drawn) [179(b), 6,11-ethano-12,12-di(pyrazolyl-3-yl]-10-methoxy-6,11-dihydrobenzo[b]quinolizinium chloride], the Ki was 0.259 µM. With `CC(=O)Oc1cccc2c1C1c3cccc[n+]3C2CC1(c1ccoc1)c1ccoc1` (stereo not drawn) [Example 169, 6,11-ethano-12,12-di(3-furyl)-10-acetyloxy-6,11-dihydrobenzo-[b]quinolizinium chloride] the Ki was 0.00358 µM. For `Oc1c(Cl)ccc2c1C1c3cccc[n+]3C2CC1(c1ccoc1)c1ccoc1` (stereo not drawn) [188(c), 6,11-ethano-12,12-di(3-furyl)-9-chloro-10-hydroxy-6,11-dihydrobenzo]b]quinolizinium chloride], the Ki was 0.0236 µM. In the case of `c1ccc2c(c1)C1C3CCc4occc4C3(c3ccoc3)C2c2cccc[n+]21` (single isomer, unassigned) [69(c), 6,11[[5',4']-4'-(3-furyl)-4,5,6,7-tetrahydrobenzofuryl]-6,11-dihydrobenzo[b]quinolizinium perchlorate], the Ki is reported as 0.0009 µM. `Oc1cccc2c1C1c3cccc[n+]3C2CC1(c1ccoc1)c1ccn[nH]1` (stereo not drawn) [Example 200, 6,11-ethano-12-(3-furyl)-12-(pyrazol-5-yl)-10-hydroxy-6,11-dihydro-benzo[b]quinolizinium chloride] was tested, and the Ki was 0.0115 µM. Work on `Oc1cccc2c1C1c3cccc[n+]3C2CC1(c1ccccc1)c1ccccc1` (stereo not drawn) [28(c), 6,11-ethano-12,12-diphenyl-10-hydroxy-6,11-dihydrobenzo[b]quinolizinium chloride] yielded a Ki of 0.0117 µM. `Clc1cccc2[n+]1C1CC(c3ccoc3)(c3ccoc3)C2c2ccccc21.[O-][Cl+3]([O-])([O-])[O-]` (stereo not drawn) [192(g), 6,11-ethano-12,12-di(3-furyl)-4-chloro-6,11-dihydrobenzo[b]-quinolizinium perchlorate] was tested, and the Ki was 0.633 µM. Work on `Oc1ccc2[n+](c1)C1CC(c3ccoc3)(c3ccoc3)C2c2ccccc21` (stereo not drawn) [Example 191(f), 12,12-di(3-furyl)-3-hydroxy-6,11-ethano-6,11-dihydrobenzo[b]quinolizinium chloride] yielded a Ki of 1.53 µM.

Same assay, conditions: [3H]TCP approx. 1 nM, rat brain membranes; mean of at least two determinations; hydrate
`CC12CC(c3ccccc3)(c3ccccc3)C(c3ccccc31)c1cccc[n+]12` (stereo not drawn) [Example 21, 6,11-ethano-12,12-diphenyl-6-methyl-6,11-dihydrobenzo[b]quinolizinium chloride hydrate] showed a Ki of 0.013 µM.

Same assay, conditions: inhibition of [3H]TCP binding at 10 μM
With `c1ccc2c(c1)C1CC(c3nc[nH]n3)(c3nc[nH]n3)C2c2cccc[n+]21` (stereo not drawn) [159(h), 6,11-ethano-12,12-di-[3-(1,2,4-triazolyl)]-6,11-dihydrobenzo[b]quinolizinium chloride] the “[3H]TCP percent inhibition @ 10 μm” value was 31%. With `Cc1ccc(S(=O)(=O)n2nccc2C2(c3ccoc3)CC3c4ccccc4C2c2cccc[n+]23)cc1.[Br-]` (single isomer, unassigned) [Example 184(d), 6,11-ethano-12-(3-furyl)-12-[1-(p-toluenesulfonyl)pyrazol-5-yl]-6,11-dihydrobenzo[b]quinolizinium bromide] the “[3H]TCP percent inhibition @ 10 μm” value was 53%. `FC(F)(F)c1cccc(C2(c3cccc(C(F)(F)F)c3)CC3c4ccccc4C2c2cccc[n+]23)c1.[Cl-]` (stereo not drawn) [46(c), 6,11-ethano-12,12-di(m-trifluoromethylphenyl)-6,11-dihydrobenzo[b]quinolizinium chloride] was tested, and the “[3H]TCP percent inhibition @ 10 μm” value was 31%. In the case of `COc1ccc(CN(c2ccc(C3(c4ccc(N(Cc5ccc(OC)cc5)S(C)(=O)=O)cc4)CC4c5ccccc5C3c3cccc[n+]34)cc2)S(C)(=O)=O)cc1` (stereo not drawn) [29(c), 6,11-ethano-12,12-di[4-(N-p-methoxybenzyl-N-methylsulfonylamino)phenyl]-6,11-dihydrobenzo[b]quinolizinium perchlorate 1/2 ethyl acetate], the “[3H]TCP percent inhibition @ 10 μm” value is reported as 31%. `Brc1ccc(C2(c3ccc(Br)cc3)CC3c4ccccc4C2c2cccc[n+]23)cc1` (stereo not drawn) [23(c), 6,11-ethano-12,12-di-p-bromophenyl-6,11-dihydrobenzo[b]quinolizinium chloride] was tested, and the “[3H]TCP percent inhibition @ 10 μm” value was 22%. In the case of `Cc1ccc(S(=O)(=O)n2nccc2C2(c3ccoc3)CC3c4cccc(O)c4C2c2cccc[n+]23)cc1` (single isomer, unassigned) [Example 199(a), 6,11-ethano-12-(3-furyl)-12-[1-(p-toluenesulfon-yl)-pyrazol-5-yl]-10-hydroxy-6,11-dihydrobenzo[b]quinolizinium perchlorate], the “[3H]TCP percent inhibition @ 10 μm” value is reported as 27%.
